From publication PMC8976029, “Gut microbiota production of trimethyl-5-aminovaleric acid reduces fatty acid oxidation and accelerates cardiac hypertrophy” (Nature Communications, 2022)
pIC50: −log10 of the molar value.

Biological target: T1, OCTN2 (hOCTN2) (Homo sapiens, UniProt O76082)
T1 construct: gene SLC22A5; human OCTN2 stably overexpressed in MDCK cells; no tag stated
T1 sequence (O76082 1-557): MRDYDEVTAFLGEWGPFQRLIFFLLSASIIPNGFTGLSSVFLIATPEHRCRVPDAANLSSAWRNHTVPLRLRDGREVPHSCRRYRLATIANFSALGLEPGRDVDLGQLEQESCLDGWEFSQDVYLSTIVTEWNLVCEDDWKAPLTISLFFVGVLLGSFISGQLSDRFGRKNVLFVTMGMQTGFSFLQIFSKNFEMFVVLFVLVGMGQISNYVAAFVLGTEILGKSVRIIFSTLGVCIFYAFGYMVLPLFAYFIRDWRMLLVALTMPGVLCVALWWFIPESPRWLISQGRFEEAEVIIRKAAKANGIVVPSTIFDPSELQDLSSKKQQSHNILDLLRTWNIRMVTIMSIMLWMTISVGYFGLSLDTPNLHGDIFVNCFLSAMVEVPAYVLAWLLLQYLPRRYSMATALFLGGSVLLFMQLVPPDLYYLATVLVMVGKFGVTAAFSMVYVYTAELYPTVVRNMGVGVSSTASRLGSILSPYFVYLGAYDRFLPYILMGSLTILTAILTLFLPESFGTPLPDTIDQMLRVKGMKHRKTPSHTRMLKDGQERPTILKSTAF
Assay: d9-carnitine uptake inhibition, LC-MS/MS
Type: cell-based
Source text: d9-carnitine uptake inhibition, LC-MS/MS on OCTN2 (hOCTN2) | TMAVA reduced the uptake of d9-carnitine in a concentration-dependent manner with an IC50 of […]

pIC50: 5.38
Structure (SMILES): C[N+](C)(C)CCCCC(=O)O [TMAVA, N,N,N-trimethyl-5-aminovaleric acid]
